Source: patent US7704976B2, “Use of N-acetyl-D-glucosamine for preparing medicines for urogenital tract infection's treatment and prevention” (Third Military Medical University, Chinese People's …, priority 2002, dated 2010)

Tests used:
[1] = test system: trichomonas vaginalis infection; assay: Clinic test, trichomonas vaginalis infection patients; format: in vivo, human; details: 2% aerosol topically sprayed to infected areas
Procedure: (§1) • 1. 170 patients suffering various venereal diseases were picked out, including 50 patients suffering gonorrhea, 50 patients suffering syphilis, 20 patients suffering condyloma acuminatum virus infection, 40 patients suffering trichomonas vaginalis infection, and 10 patients suffering candida albicans. 2% N-acetyl-D-glucosamine aerosol was topically sprayed to infected areas, and the effects of the compound of formula (I) for treatment of urogenital tract infections were determined by smearing and microscopic examination, and by isolation and culture.
(§2) Observation of therapeutical effect of N-acetyl-D-glucosamine for treatment of urogenital tract infections

[2] = test system: various urogenital tract infections
bacteria = assay: Test of suppressing bacteria; format: cell-based
Excerpt: (§3) III. Tests of Effect for Suppressing Bacterial Transplantation
(§4) • 1. Test of effect for suppressing bacillus pyocyaneus transplantation on skin • 2. Test of suppressing bacteria

[3] = in vivo
Excerpt: II. Toxicological Test of the Compound of Formula (I), Including:
• 1. Acute toxicity test: including tests of oral administration, intravenous injection administration, and maximum limit amount for administration. • 2. Ames test; • 3. Micronucleus test of mouse bone marrow cell; • 4. Abnormality test of mouse sperm; • 5. Aberration test of mouse testis chromosome; • 6. Chronic lethal test; • 7. Subchronic toxicity (feed for 90 days) test; • 8. Traditional deformity-inducing test.

Gonorrhea = assay: Clinic test, gonorrhea patients; format: in vivo, human; details: 2% aerosol topically sprayed to infected areas
Procedure: as §1, §2

candida albicans = assay: Clinic test, candida albicans patients; format: in vivo, human; details: 2% aerosol topically sprayed to infected areas
Procedure: as §1, §2

bacillus pyocyaneus = assay: Test of effect for suppressing bacillus pyocyaneus transplantation on skin
Excerpt: as §3, §4

[4] = test system: condyloma acuminatum virus infection; assay: Clinic test, condyloma acuminatum virus infection patients; format: in vivo, human; details: 2% aerosol topically sprayed to infected areas
Procedure: as §1, §2

Syphilis = assay: Clinic test, syphilis patients; format: in vivo, human; details: 2% aerosol topically sprayed to infected areas
Procedure: as §1, §2

Proteus Mirabilis = assay: Promoting wave test (bio-wave model on LB plate); format: cell-based; details: final concentration of 0.5% on LB plate, 37° C.
Excerpt: 1. […] 1.3 Experimental Method:

Structure (SMILES): CC(=O)N[C@H]1C(O)O[C@H](CO)[C@@H](O)[C@@H]1O (stereo partly drawn) [N-acetyl-D-glucosamine]
- Effective rate (%) [1]: 75%
- Ineffective rate (%) [1]: 25%
- effective rate for treatment of various urogenital tract infections [2]: 79%
- bactericidal or bacteriostasis effect (bacteria): essentially exhibited no bactericidal or bacteriostasis effect
- dosage at which acute toxicosis reaction had not appeared [3]: more than 2 g/kg
- Effective rate (%) (Gonorrhea): 90%
- Ineffective rate (%) (Gonorrhea): 10%
- Effective rate (%) (candida albicans): 90%
- Ineffective rate (%) (candida albicans): 10%
- transplantation and growth of bacillus pyocyaneus (bacillus pyocyaneus): suppressed the transplantation and growth of bacillus pyocyaneus
- Effective rate (%) [4]: 80%
- Ineffective rate (%) [4]: 20%
- Effective rate (%) (Syphilis): 60%
- Ineffective rate (%) (Syphilis): 40%
- promoting wave function (ring pattern versus control) (Proteus Mirabilis): many fine waves on each ring emerged
